Where a SMILES comes first, the peptide text is derived from it. Bridges are numbered along the chain shown (N, C = ends). [ ]: non-standard residue; d: D form. The star is where a group is joined. DOTA = O=C(O)CN1CCN(CC(=O)O)CCN(CC(=O)*)CCN(CC(=O)O)CC1; Cit = NC(=O)NCCC[C@H](N)C(=O)O
Experiments:
[1] = target: T1, uPAR-expressing HEC-265 human endometrial adenocarcinoma cells (Homo sapiens, UniProt Q03405); experiment: Competitive FACS binding assay; settings: pIC50 category of FACS binding
T1 construct: Cell surface uPAR-expressing HEC-265 human endometrial adenocarcinoma cells; host or cells: HEC-265
Outline: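 HEC-265 cells incubated 1 h at 4 °C with 10 nM biotinylated uPAR peptide tracer plus increasing test compound, then stained with APC-streptavidin on ice. Median APC fluorescence by flow cytometry; 4PL fit gives pIC50.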

human uPAR (uPAR-Fc) = target: T2, human uPAR (uPAR-Fc) (Homo sapiens, UniProt Q03405); experiment: Surface plasmon resonance (SPR) assay, single cycle kinetics; format: binding; settings: pKD category for uPAR SPR activity assay; uPAR-Fc on Protein A-Chip, single cycle kinetics, 25°C; read-out: pKD CAT (converted)
T2 construct: comprising amino acids Leu23-Arg303 according to UniProt entry Q03405.1; purchased R&D Systems 10378-UK-100
Outline: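 uPAR-Fc (Leu23-Arg303 extracellular domains, human IgG1 Fc) captured on Protein A chip to ~2000 RU; single-cycle kinetics at 25°C in HEPES running buffer pH 7.4 with 0.1% DMSO. KD from double-referenced sensorgrams fitted to 1:1 Langmuir model, reported as pKD.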

T2 sequence (Q03405 23-303): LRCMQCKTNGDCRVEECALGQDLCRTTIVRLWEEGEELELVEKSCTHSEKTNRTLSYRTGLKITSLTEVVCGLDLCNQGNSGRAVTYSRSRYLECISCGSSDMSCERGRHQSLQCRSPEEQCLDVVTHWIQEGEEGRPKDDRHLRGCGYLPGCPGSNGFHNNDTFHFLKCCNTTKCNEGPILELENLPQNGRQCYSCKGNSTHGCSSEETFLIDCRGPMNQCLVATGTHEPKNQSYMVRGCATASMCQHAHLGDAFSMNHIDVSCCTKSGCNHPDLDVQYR
T1 sequence (Q03405 23-335): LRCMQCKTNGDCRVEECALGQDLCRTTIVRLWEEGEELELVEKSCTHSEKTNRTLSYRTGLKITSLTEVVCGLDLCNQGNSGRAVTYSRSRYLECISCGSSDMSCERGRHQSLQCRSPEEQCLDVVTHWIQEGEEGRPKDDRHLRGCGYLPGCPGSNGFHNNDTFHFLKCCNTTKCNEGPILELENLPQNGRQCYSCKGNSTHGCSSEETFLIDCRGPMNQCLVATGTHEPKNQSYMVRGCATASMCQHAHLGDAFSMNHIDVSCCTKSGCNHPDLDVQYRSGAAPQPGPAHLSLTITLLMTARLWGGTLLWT

**Q.** Which IC50 [1] does the source give for `CC[C@H](C)[C@@H]1NC(=O)[C@@H](C)NC(=O)[C@@H]2CCCN2C(=O)[C@H](Cc2ccccc2)NC(=O)[C@H](Cc2ccc(O)cc2)NC(=O)[C@H](CCC(N)=O)NC(=O)[C@H](CCCNC(N)=O)NC(=O)[C@@H](NC(=O)[C@H](CC(C)C)NC(=O)CN2CCN(CC(=O)O)CCN(CC(=O)O)CCN(CC(=O)O)CC2)CSSC[C@@H](C(N)=O)NC(=O)[C@H](CC(C)C)NC1=O` [UPAR-441, DOTA-Leu-[Cys-Cit-Gln-Tyr-Phe-Pro-ala-Ile-Leu-Cys]-NH2] ({DOTA}-LC[Cit]QYFP[dA]ILC-NH2; disulfide 2-11) here?
**A.** 39.8 to 100 nM

**Q.** What about the Kd (human uPAR (uPAR-Fc)) of the same compound?
**A.** < 1.58 nM

Reference: patent EP4610269A1, “UROKINASE PLASMINOGEN ACTIVATOR SURFACE RECEPTOR (UPAR) LIGANDS FOR DIAGNOSTIC OR THERAPEUTIC USE” (3B Pharmaceuticals GmbH, priority 2024, dated 2025)
